According to patent publication US20240300945A1, “CLY SERIES COMPOUND, PREPARATION METHOD THEREFOR AND USE THEREOF IN PREPARATION OF DRUGS” (NANJING WELLBEST PHARMACEUTICAL CO., LTD, priority 2021, published 2024):

What was measured:
[1] = test system: skin hair follicles and sebaceous glands of rats; test: Rat hair loss model: histopathological grading of skin hair follicles and sebaceous glands; assay type: in vivo, Wistar rats; details: 60 days, 10 rats per group; for number of rats with hair follicle and sebaceous gland grade +++: grade +++ (most severe); for number of rats with hair follicle and sebaceous gland grade ±: grade ± (lesions limited); for number of rats with hair follicle and sebaceous gland grade −: grade − (normal structure)
Excerpt: Wistar rats were, according to weights, randomly divided into the negative control group (75% ethanol for external use), model group (75% ethanol for external use), positive control group (external 5% minoxidil tincture), CLY-1 external treatment group (external 5% CLY-1 tincture), CLY-2 external treatment group (external 5% CLY-2 tincture), CLY-3 external treatment group (external 5% CLY-3 tincture), CLY-4 external treatment group (external 5% CLY-4 tincture), and CLY-5 external treatment group (external 5% CLY-5 tincture) according to their body weight CLY-8 external treatment group (external 5% CLY-8 tincture), CLY-11 external treatment group (external 5% CLY-11 tincture), CLY-19 external treatment group (external 5% CLY-19 tincture), CLY-36 external treatment group (external 5% CLY-36 tincture), CLY-39 external treatment group (external 5% CLY-39 tincture), CLY-1 intravenous injection group (2 mg/kg·d), CLY-3 intravenous injection group (2 mg/kg·d), CLY-4 intravenous injection group (2 mg/kg·d) CLY-5 intravenous injection group (2 mg/kg·d), CLY-8 intravenous injection group (2 mg/kg·d), CLY-11 intravenous injection group (2 mg/kg·d), CLY-19 intravenous injection group (2 mg/kg·d), CLY-36 intravenous injection group (2 mg/kg·d), and CLY-39 intravenous injection group (2 mg/kg·d), with 10 rats in each group. Before the experiment, an area of 4 cm×5 cm was selected on each rat on the back of the neck to remove hair as the observation area. In addition to the negative control group, rats were subcutaneously injected with testosterone propionate injection [5 ml/(kg·d)] once a day for 60 days to establish the androgenic alopecia (AGA) model. […] At the same time, the drug was applied to the observation area on the back of the rats in the corresponding drug group at the rate of 2 mL/(one time), twice a day, at an interval of 8 hours; Intravenous administration once a day. The negative control group and the model control group were smeared with 75% ethanol solution, 2 mL/(one rat per time), twice a day, for 60 days.
Took 10 hairs from the observation area on the back of each rat every 15 days after administration, and measured the hair length with a vernier caliper. After 60 days of administration, the skin of the experimental observation area was taken for routine tissue dehydration, paraffin embedding, HE staining, and light microscopy to observe the histopathological changes of the rat skin hair follicles and sebaceous glands. Semi-quantitative analysis was performed for each group. The grading criteria are as follows: the normal structure of dermal tissue cells, subcutaneous hair follicles, and sebaceous glands is marked as […]: no hyperplasia of dermal tissue is found, the lesions of hair follicles and sebaceous glands are limited, and no inflammation is found under the skin is marked as “+”: no obvious hyperplasia of dermal tissue is found, and the follicles are obviously cystic. No obvious hyperplasia of sebaceous glands is found, and no inflammation is found under the skin is marked as “+”: the dermal tissue has segmental hyperplasia, which is not obvious, A small number of hair follicles have cystic changes, and the sebaceous glands have mild hyperplasia and hypertrophy. There is no obvious inflammation under the skin, which is marked as “++”: the dermal tissue cells of the skin have different degrees of segmental hyperplasia, and some hair follicles have cystic changes, showing uneven size of hair follicles, and no cells around. The sebaceous glands have hyperplasia, and the nuclei in the proliferative glands are few. A few rats have mild inflammatory hyperplasia under the skin, which is marked as “+++”.

[2] = test system: rat scar model; test: Rat scar model (skin wound healing); assay type: in vivo; details: rat back wound 2.4 cm; 0.5% cream on the skin
Excerpt: 1.1 Preparation method of treatment cream: The excipient matrix components included methyl silicone oil (15%), stearic acid (6%), white vaseline (5%), liquid paraffin (5%), octadecanol (5%), glycerin (20%), alkylaryl polyglycol ether (1%), fatty alcohol polyoxyethylene ether (1%), […] (1%), ethyl paraben (0.1%), distilled water (about 31-55%), and mixed with appropriate amount of CLY series compounds to form a mixed emulsion. The emulsion matrix used in this embodiment refers to the matrix component after the active ingredient was removed from the emulsion.
1.2 Grouping and modeling of experimental animals: SPF grade male rats, weighing (210±28) g, from the Animal Center of Nanyi University. The rats were numbered according to their body weight and using the random array method, samples were divided into the model control group (applied cream matrix), CLY-1 treatment group (applied 0.5% CLY-1 cream on the skin), CLY-2 treatment group (applied 0.5% CLY-2 cream on the skin), CLY-3 treatment group (0.5% CLY-3 cream on the skin), CLY-4 treatment group (0.5% CLY-4 cream on the skin), CLY-8 treatment group (0.5% CLY-8 cream on the skin), CLY-11 treatment group (0.5% CLY-11 cream on the skin) CLY-19 treatment group (0.5% CLY-19 cream on the skin), CLY-36 treatment group (0.5% CLY-36 cream on the skin), and CLY-39 treatment group (0.5% CLY-39 cream on the skin), 6 in each group. Rats in each group were anesthetized by intraperitoneal injection of 2% pentobarbital sodium (120 mg/kg) and fixed on the operating table, and then chose a piece of 4×5 cm of intact skin on the back, 8% sodium sulfide hair removal, used tissue scissors to cut a wound with a diameter of 2.4 cm and a depth of muscle fascia at the hair removal site, and damage part of the muscle surface fascia. Animals were kept in separate cages to prevent rats from biting and licking. Applied 2% iodine tincture daily to the wound for routine disinfection, and observed the wound healing of rats.
The wounds were routinely disinfected every day, and the wounds of rats were observed on the 1st, 3rd, 5th, 7th, 12th, and 20th days. […] On the 12th day, the wounds in each treatment group had basically recovered, while the model group still had about 0.5 cm2 of wounds. By the 20th day, the wounds in each group had recovered, and the model control group left obvious scars, while each treatment group only left different amounts of pigmentation.

| Structure (SMILES) | number of rats with hair follicle and sebaceous gland grade +++ ([1]; external 5% tincture) | number of rats with hair follicle and sebaceous gland grade +++ ([1]; intravenous 2 mg/kg·d) | number of rats with hair follicle and sebaceous gland grade ++ ([1]; external 5% tincture) | number of rats with hair follicle and sebaceous gland grade ++ ([1]; intravenous 2 mg/kg·d) | number of rats with hair follicle and sebaceous gland grade + ([1]; external 5% tincture) | number of rats with hair follicle and sebaceous gland grade + ([1]; intravenous 2 mg/kg·d) | number of rats with hair follicle and sebaceous gland grade ± ([1]; external 5% tincture) | number of rats with hair follicle and sebaceous gland grade ± ([1]; intravenous 2 mg/kg·d) | number of rats with hair follicle and sebaceous gland grade − ([1]; external 5% tincture) | number of rats with hair follicle and sebaceous gland grade − ([1]; intravenous 2 mg/kg·d) | skin wound healing and scar formation [2] |
| --- | --- | --- | --- | --- | --- | --- | --- | --- | --- | --- | --- |
| O=C(c1ccc(-c2ccccc2-c2nnn[nH]2)cc1)N(c1ncccc1Cl)[C@@H]1CCCNC1 [CLY-19] | 0 | 0 | 2 | 2 | 3 | 2 | 5 | 6 | 0 | 0 | significantly promote skin wound healing and reduce scar formation |
| O=C(c1ccc(-c2ccccc2Cl)cc1)N(c1ncccc1Cl)[C@@H]1CCCNC1 [CLY-36] | 0 | 0 | 3 | 3 | 2 | 1 | 5 | 6 | 0 | 0 | significantly promote skin wound healing and reduce scar formation |
| Nc1ccccc1-c1ccc(C(=O)N(c2ncccc2Cl)[C@@H]2CCCNC2)cc1 [CLY-39] | 0 | 0 | 1 | 1 | 3 | 2 | 6 | 7 | 0 | 0 | significantly promote skin wound healing and reduce scar formation |
